Experiments:
Assay type in all cases: in vivo
[1] = system: chickweed (common chickweed, Stellaria media); experiment: Test C greenhouse herbicide test, postemergence
Summary of the method: (§1)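 Postemergence foliar treatment, 1- to 4-leaf stage (2–18 cm), peat/vermiculite medium; greenhouse 13–15 d; visual rating vs controls, 0 = no effect, 100 = complete control; dash = no result.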

[2] = system: oat, wild (wild oat, Avena fatua); experiment: Test C greenhouse herbicide test, postemergence
Summary of the method: as §1

kochia (Kochia scoparia) [3] = experiment: Test C greenhouse herbicide test, postemergence
Summary of the method: as §1

[4] = system: barnyardgrass (Echinochloa crus-galli); experiment: Test B flooded paddy test; conditions: 250 g ai/ha, Flood; visual rating on scale of 0 to 100 where 0 is no effect and 100 is complete control; 13 to 15 d after treatment
Summary of the method: (§2)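 Ratings use a 0-100 visual scale, where 100 is complete control, and compare treated plants with controls after 13 to 15 d of greenhouse growth. Compound went straight into paddy water kept 3 cm over the soil surface, applied to seedlings at the 2-leaf stage.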

[5] = system: sedge, umbrella (small-flower umbrella sedge, Cyperus difformis); experiment: Test B flooded paddy test; conditions: 250 g ai/ha, Flood; visual rating on scale of 0 to 100 where 0 is no effect and 100 is complete control; 13 to 15 d after treatment
Summary of the method: as §2

[6] = system: ducksalad (Heteranthera limosa); experiment: Test B flooded paddy test; conditions: 250 g ai/ha, Flood; visual rating on scale of 0 to 100 where 0 is no effect and 100 is complete control; 13 to 15 d after treatment
Summary of the method: as §2

rice (Oryza sativa) = experiment: Test B flooded paddy test; conditions: 250 g ai/ha, Flood; visual rating on scale of 0 to 100 where 0 is no effect and 100 is complete control; 13 to 15 d after treatment
Summary of the method: as §2

[7] = system: barnyardgrass (Echinochloa crus-galli); experiment: Test A greenhouse herbicide test, pre- and postemergence
Summary of the method: (§3)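 Visual injury ratings, 0 (no effect) to 100 (complete control), versus untreated plants after roughly 10 d in a greenhouse. Compounds, formulated in a surfactant-containing non-phytotoxic solvent, were sprayed on loam–sand soil after sowing (pre) or on one- to two-leaf plants 2–10 cm tall (post).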

corn (Zea mays) = experiment: as above; conditions: Postemergence; for Corn plant response rating: 0 to 100 scale, 0 is no effect, 100 is complete control
Summary of the method: as §3

[8] = system: ragweed (common ragweed, Ambrosia elatior); experiment: as above
Summary of the method: as §3

kochia (Kochia scoparia) [9] = experiment: as above
Summary of the method: as §3

[10] = system: foxtail, giant (giant foxtail, Setaria faberii); experiment: as above
Summary of the method: as §3

[11] = Postemergence, 31 g ai/ha, 0 to 100 scale (0 no effect, 100 complete control)
[12] = Postemergence, 125 g ai/ha, scale 0 to 100, 0 is no effect, 100 is complete control
[13] = Postemergence, 250 g ai/ha, scale 0 to 100, 0 no effect, 100 complete control, 13 to 15 d
[14] = postemergence, 62 g ai/ha, scale 0 to 100, 0 no effect, 100 complete control
[15] = Postemergence, 125 g ai/ha, 0 to 100 scale where 0 is no effect and 100 is complete control
[16] = Postemergence, 500 g ai/ha, 0 to 100 scale, 0 is no effect, 100 is complete control
[17] = Preemergence, 125 g ai/ha, 0 to 100 scale where 0 is no effect and 100 is complete control
[18] = 125 g ai/ha, 0 to 100 scale where 0 is no effect and 100 is complete control
[19] = Preemergence, 500 g ai/ha, 0 to 100 scale where 0 is no effect and 100 is complete control
[20] = 500 g ai/ha, visual rating after approx. 10 d, 0 to 100 scale (0 no effect, 100 complete control)
[21] = Postemergence, 500 g ai/ha, visual rating after approx. 10 d, 0 to 100 scale (0 no effect, 100 complete control)
[22] = Postemergence, 31 g ai/ha, scale 0 to 100 (0 no effect, 100 complete control)

Compound	Plant response rating, Chickweed [1, 12]	Plant response rating, Chickweed [1, 13]	Chickweed plant response rating [1, 14]	Plant response rating, Oat, Wild [2, 12]	Plant response rating, Oat, Wild [2, 13]	Plant response rating, Kochia (kochia (Kochia scoparia) [3]; [12])	Plant response rating, Kochia (kochia (Kochia scoparia) [3]; [13])	Plant response rating, Barnyardgrass [4]	Plant response rating, Sedge, Umbrella [5]	Plant response rating, Ducksalad [6]	Plant response rating, Rice (rice (Oryza sativa))	Plant response rating, Barnyardgrass [7, 15]	Barnyardgrass plant response rating [7, 16]	Barnyardgrass plant response rating [7, 17]	Plant response rating, Corn (corn (Zea mays); [18])	Plant response rating, Ragweed [8, 15]	Ragweed plant response rating [8, 17]	Plant response rating, Ragweed [8, 19]	Plant response rating, Kochia (kochia (Kochia scoparia) [9]; [15])	Kochia plant response rating (kochia (Kochia scoparia) [9]; [17])	also measured
Cc1ccc2sc(Br)c(-c3c(O)c(C)nn(C)c3=O)c2c1 [Compound 79]	90	90	90	85	90	90	90	0	0	0	0	50	80	50	0	90	80	80	80	70	Chickweed plant response rating [1, 11]: 90; Oat, Wild plant response rating [2, 11]: 50; Oat, Wild plant response rating [2, 14]: 60; Kochia plant response rating (kochia (Kochia scoparia) [3]; [11]): 50; Kochia plant response rating (kochia (Kochia scoparia) [3]; [14]): 90; Plant response rating, Barnyardgrass ([7]; Preemergence, 500 g ai/ha, 0 to 100 scale, 0 no effect, 100 complete control): 70; Corn plant response rating (corn (Zea mays); 500 g ai/ha): 0; Ragweed plant response rating [8, 16]: 90; Kochia plant response rating (kochia (Kochia scoparia) [9]; [16]): 90; Plant response rating, Kochia (kochia (Kochia scoparia) [9]; [19]): 90; Plant response rating, Foxtail, Giant [10, 15]: 70; Foxtail, Giant plant response rating [10, 16]: 80; Foxtail, Giant plant response rating [10, 17]: 90; Plant response rating, Foxtail, Giant [10, 19]: 90
Cc1sc2ccccc2c1-c1c(O)c(Cl)nn(C)c1=O [Compound 89]	100	100	95	30	40	90	100	0	40	65	0	40	80	50	0	80	80	90	80	70	Chickweed plant response rating [1, 11]: 90; Oat, Wild plant response rating [2, 14]: 10; Kochia plant response rating (kochia (Kochia scoparia) [3]; [14]): 90; Plant response rating, Barnyardgrass [7, 19]: 60; Corn plant response rating (corn (Zea mays); 500 g ai/ha): 0; Ragweed plant response rating [8, 16]: 90; Kochia plant response rating (kochia (Kochia scoparia) [9]; [16]): 90; Plant response rating, Kochia (kochia (Kochia scoparia) [9]; [19]): 90; Plant response rating, Foxtail, Giant [10, 15]: 70; Foxtail, Giant plant response rating [10, 16]: 80; Foxtail, Giant plant response rating [10, 17]: 50; Plant response rating, Foxtail, Giant [10, 19]: 80
CC(=O)Oc1c(C)nn(C)c(=O)c1-c1c(C)cc(C)c2ccccc12 [Compound 99]	90	90	90	90	95	90	95	0	0	0	0	20	90	60	20	100	80	80	30	20	Chickweed plant response rating [1, 11]: 90; Oat, Wild plant response rating [2, 14]: 70; Kochia plant response rating (kochia (Kochia scoparia) [3]; [14]): 85; Plant response rating, Barnyardgrass [7, 19]: 90; Plant response rating, Corn (corn (Zea mays); [20]): 40; Plant response rating, Ragweed [8, 21]: 100; Plant response rating, Kochia (kochia (Kochia scoparia) [9]; [21]): 70; Plant response rating, Kochia (kochia (Kochia scoparia) [9]; [19]): 70; Plant response rating, Foxtail, Giant [10, 15]: 40; Plant response rating, Foxtail, Giant [10, 21]: 90; Foxtail, Giant plant response rating [10, 17]: 50; Plant response rating, Foxtail, Giant [10, 19]: 80
Cc1ccc2ccccc2c1-c1c(O)c(C(F)(F)F)nn(C)c1=O [Compound 102]	95	98	95	10	25	20	50	0	50	0	0	40	90	40	20	100	90	90	20	10	Plant response rating, Chickweed [1, 22]: 95; Plant response rating, Oat, Wild [2, 22]: 5; Plant response rating, Kochia (kochia (Kochia scoparia) [3]; [22]): 0; Plant response rating, Barnyardgrass [7, 19]: 60; Plant response rating, Corn (corn (Zea mays); [20]): 20; Plant response rating, Ragweed [8, 21]: 100; Plant response rating, Kochia (kochia (Kochia scoparia) [9]; [21]): 40; Plant response rating, Kochia (kochia (Kochia scoparia) [9]; [19]): 30; Plant response rating, Foxtail, Giant [10, 15]: 70; Plant response rating, Foxtail, Giant [10, 21]: 90; Foxtail, Giant plant response rating [10, 17]: 70; Plant response rating, Foxtail, Giant [10, 19]: 90

Reference: patent US10597388B2, “Pyridazinone herbicides” (FMC CORPORATION, priority 2014, dated 2020)
